Test results from US6444617B1, “Fused-heterocycle dicarboxylic acid diamide derivatives or salts thereof, herbicide and usage thereof” (Nihon Nohyaku Co., Ltd., priority 1998, dated 2002).

What was measured:
Type in all cases: in vivo
[1] = system: cleavers (Galium aparine L.), Ga; test: Test Example 3: herbicidal effect on upland weeds before emergence; settings: dosage 5 kg/ha
Method: (§1) Herbicidal Effect on Upland Weeds Before Emergence […] Then, a liquid preparation of an agent comprising a prescribed concentration of a compound of the present invention (the compounds listed in Tables 1-14) as active ingredient was sprayed. Fourteen days after the treatment, the herbicidal effect was investigated, from which weed-killing rate was calculated in the same manner as in Test Example 1, and the herbicidal effect was judged.

[2] = system: bird's eye speedwell (Veronica persica Poir.), Vp; test: as above; settings: dosage 5 kg/ha
Method: as §1

[3] = system: forxtail grass (Alopecurus aequalis var. amurensis Ohwi), Am; test: as above; settings: foxtail grass, dosage 5 kg/ha
Method: as §1

[4] = system: cocklebur (Xanthium strumarium L.), Xs; test: as above; settings: dosage 5 kg/ha
Method: as §1

[5] = system: barnyard grass (Echinochloa crus-galli Beauv.), Ec; test: as above; settings: dosage 5 kg/ha
Method: as §1

[6] = system: velvetleaf (Abutilon theophtasti L.), At; test: as above; settings: dosage 5 kg/ha
Method: as §1

soybean plant = test: Test Example 4: phytotoxicity to upland crop plants, treatment after emergence; settings: dosage 5 kg/ha, sprayed after emergence, judged 14 days after treatment
Description: (§2) Herbicidal Effect on Upland Weeds After Emergence Polyethylene-made vats having a size of 10 cm (length)×20 cm (width)×5 cm (height) were filled with soil, sown with seeds of the following noxious upland weeds and with seeds of soybean plant and wheat as upland crop plants, and then covered with soil. The plants were made to grow up until they reached the leaf-stages mentioned below, after which an agent comprising a prescribed concentration of a compound of the present invention (listed in Tables 1 to 14) as active ingredient was sprayed. Fourteen days after the treatment, the herbicidal effect was investigated, from which weed-killing rate was calculated in the same manner as in Test Example 1 and the results were judged. […] Sample weeds, their leaf stages, and leaf stages of soybean plant and wheat were as follows: [table]

wheat = test: as above; settings: dosage 5 kg/ha, sprayed after emergence, judged 14 days after treatment
Description: as §2

[7] = system: bulrush (Scirpus juncoides Roxb.); test: Test Example 2: herbicidal effect on paddy field weeds after emergence; settings: Dosage 5 kg/ha; one-leaved stage; 21 days after treatment
Method: (§3) Test for Herbicidal Effect on Paddy Field Weeds After Emergence. Soil was filled into 1/10000 are pots and brought into a state of paddy field, in which seeds of barnyard grass (Echinochloa crus-galli Beauv.), bulrush (Scirpus juncoides Roxb.) and monochoria (Monochoria vaginalis Presl) were made to reach one-leaved stage. The soil in the pots were treated with a solution containing a predetermined dosage of a chemical agent comprising a compound of the present invention listed in Tables 1 to 14. Twenty one days after the treatment, the herbicidal effect was investigated and the result was compared with that in untreated plot to calculate the weed-controlling rate, and the herbicidal effect was judged according to the same criterion as in Test Example 1.

[8] = system: barnyard grass (Echinochloa crus-galli Beauv.); test: as above; settings: Dosage 5 kg/ha; one-leaved stage; 21 days after treatment
Method: as §3

[9] = system: monochoria (Monochoria vaginalis Presl); test: as above; settings: Dosage 5 kg/ha; one-leaved stage; 21 days after treatment
Method: as §3

[10] = system: cleavers (Galium aparine L.), Ga; test: Test Example 4: herbicidal effect on upland weeds after emergence; settings: dosage 5 kg/ha; sprayed after emergence; judged 14 days after treatment
Description: as §2

[11] = system: bird's eye speedwell (Veronica persica Poir.), Vp; test: as above; settings: dosage 5 kg/ha; sprayed after emergence; judged 14 days after treatment
Description: as §2

[12] = system: forxtail grass (Alopecurus aequalis var. amurensis Ohwi), Am; test: as above; settings: dosage 5 kg/ha; sprayed after emergence; judged 14 days after treatment
Description: as §2

[13] = system: cocklebur (Xanthium strumarium L.), Xs; test: as above; settings: dosage 5 kg/ha; sprayed after emergence; judged 14 days after treatment
Description: as §2

[14] = system: barnyard grass (Echinochloa crus-galli Beauv.), Ec; test: as above; settings: dosage 5 kg/ha; sprayed after emergence; judged 14 days after treatment
Description: as §2

[15] = system: velvetleaf (Abutilon theophtasti L.), At; test: as above; settings: dosage 5 kg/ha; sprayed after emergence; judged 14 days after treatment
Description: as §2

wheat (Wh) = test: Test Example 3: phytotoxicity to upland crop plants, treatment before emergence; settings: dosage 5 kg/ha
Method: as §1, with “judged. At the same time, phytotoxicity to soybean plant and wheat was investigated and judged according to the criterion mentioned below.” for “judged.”

soybean plant (So) = test: as above; settings: dosage 5 kg/ha
Method: as §1, with “judged. At the same time, phytotoxicity to soybean plant and wheat was investigated and judged according to the criterion mentioned below.” for “judged.”

[16] = system: bulrush (Scirpus juncoides Roxb.); test: Test Example 1: herbicidal effect on paddy field weeds before emergence; settings: Dosage 5 kg/ha
Method: as §3, with “Before Emergence” for “After Emergence.”, “Beauv.) and” for “Beauv.),”, “Roxb.)” for “Roxb.) and monochoria (Monochoria vaginalis Presl)”, “be before germination.” for “reach one-leaved stage.”, “investigated,” for “investigated and”, “following criterion: […]” for “same criterion as in Test Example 1.”

[17] = system: barnyard grass (Echinochloa crus-galli Beauv.); test: as above; settings: Dosage 5 kg/ha
Method: as §3, with “Before Emergence” for “After Emergence.”, “Beauv.) and” for “Beauv.),”, “Roxb.)” for “Roxb.) and monochoria (Monochoria vaginalis Presl)”, “be before germination.” for “reach one-leaved stage.”, “investigated,” for “investigated and”, “following criterion: […]” for “same criterion as in Test Example 1.”

CCc1ccc(Cl)c(CC)c1NC(=O)c1cc2ccccc2nc1C(=O)NC1CCCC1 [359-6]
Herbicidal effect Ga [1]: 5 (Weed-killing rate is 100%.)
Herbicidal effect Vp [2]: 5 (Weed-killing rate is 100%.)
Herbicidal effect Am [3]: 5 (Weed-killing rate is 100%.)
Herbicidal effect Xs [4]: 5 (Weed-killing rate is 100%.)
Herbicidal effect Ec [5]: 5 (Weed-killing rate is 100%.)
Herbicidal effect At [6]: 5 (Weed-killing rate is 100%.)
Phytotoxicity So (soybean plant): 3 (Crop-killing rate is 70-89%.)
Phytotoxicity Wh (wheat): 2 (Crop-killing rate is 40-69%.)
Post-emergence treatment Bulrush (herbicidal effect) [7]: 5 (Weed-killing rate is 100%.)
Post-emergence treatment Barnyard grass (herbicidal effect) [8]: 5 (Weed-killing rate is 100%.)
Post-emergence treatment Monochoria (herbicidal effect) [9]: 5 (Weed-killing rate is 100%.)
Herbicidal effect Ga [10]: 5 (Weed-killing rate is 100%.)
Herbicidal effect Vp [11]: 5 (Weed-killing rate is 100%.)
Herbicidal effect Am [12]: 5 (Weed-killing rate is 100%.)
Herbicidal effect Xs [13]: 5 (Weed-killing rate is 100%.)
Herbicidal effect Ec [14]: 5 (Weed-killing rate is 100%.)
Herbicidal effect At [15]: 5 (Weed-killing rate is 100%.)
Phytotoxicity Wh (wheat (Wh)): 0 (Crop-killing rate is 0-20% (No Phytotoxicity).)
Phytotoxicity So (soybean plant (So)): 0 (Crop-killing rate is 0-20% (No Phytotoxicity).)
Pre-emergence treatment Bulrush (herbicidal effect) [16]: 5 (Weed-killing rate is 100%.)
Pre-emergence treatment Barnyard grass (herbicidal effect) [17]: 5 (Weed-killing rate is 100%.)

CCCNC(=O)c1nc2cc(F)ccc2cc1C(=O)Nc1c(CC)ccc(Cl)c1CC [Compound No. 158, 3-(3-Chloro-2,6-diethylphenyl)-aminocarbonyl-7-fluoro-2-quinolinecarboxylic Acid n-Propylamide]
Herbicidal effect Ga [1]: 5 (Weed-killing rate is 100%.)
Herbicidal effect Vp [2]: 5 (Weed-killing rate is 100%.)
Herbicidal effect Am [3]: 4 (Weed-killing rate is 90-99%.)
Herbicidal effect Xs [4]: 4 (Weed-killing rate is 90-99%.)
Herbicidal effect Ec [5]: 5 (Weed-killing rate is 100%.)
Herbicidal effect At [6]: 5 (Weed-killing rate is 100%.)
Phytotoxicity So (soybean plant): 2 (Crop-killing rate is 40-69%.)
Phytotoxicity Wh (wheat): 4 (Crop-killing rate is 90-99%.)
Post-emergence treatment Bulrush (herbicidal effect) [7]: 5 (Weed-killing rate is 100%.)
Post-emergence treatment Barnyard grass (herbicidal effect) [8]: 5 (Weed-killing rate is 100%.)
Post-emergence treatment Monochoria (herbicidal effect) [9]: 5 (Weed-killing rate is 100%.)
Herbicidal effect Ga [10]: 5 (Weed-killing rate is 100%.)
Herbicidal effect Vp [11]: 5 (Weed-killing rate is 100%.)
Herbicidal effect Am [12]: 4 (Weed-killing rate is 90-99%.)
Herbicidal effect Xs [13]: 4 (Weed-killing rate is 90-99%.)
Herbicidal effect Ec [14]: 5 (Weed-killing rate is 100%.)
Herbicidal effect At [15]: 5 (Weed-killing rate is 100%.)
Phytotoxicity Wh (wheat (Wh)): 4 (Crop-killing rate is 90-99%.)
Phytotoxicity So (soybean plant (So)): 1 (Crop-killing rate is 1-39%.)
Pre-emergence treatment Bulrush (herbicidal effect) [16]: 5 (Weed-killing rate is 100%.)
Pre-emergence treatment Barnyard grass (herbicidal effect) [17]: 5 (Weed-killing rate is 100%.)

CCNC(=O)c1nc2ncccc2cc1C(=O)Nc1c(CC)ccc(Cl)c1CC [Compound No. 360, 3-(3-Chloro-2,6-diethylphenyl)-aminocarbonyl-1,8-naphthylidine-2-carboxylic Acid Ethylamide]
Herbicidal effect Ga [1]: 5 (Weed-killing rate is 100%.)
Herbicidal effect Vp [2]: 5 (Weed-killing rate is 100%.)
Herbicidal effect Am [3]: 5 (Weed-killing rate is 100%.)
Herbicidal effect Xs [4]: 5 (Weed-killing rate is 100%.)
Herbicidal effect Ec [5]: 5 (Weed-killing rate is 100%.)
Herbicidal effect At [6]: 5 (Weed-killing rate is 100%.)
Phytotoxicity So (soybean plant): 3 (Crop-killing rate is 70-89%.)
Phytotoxicity Wh (wheat): 4 (Crop-killing rate is 90-99%.)
Post-emergence treatment Bulrush (herbicidal effect) [7]: 5 (Weed-killing rate is 100%.)
Post-emergence treatment Barnyard grass (herbicidal effect) [8]: 5 (Weed-killing rate is 100%.)
Post-emergence treatment Monochoria (herbicidal effect) [9]: 5 (Weed-killing rate is 100%.)
Herbicidal effect Ga [10]: 4 (Weed-killing rate is 90-99%.)
Herbicidal effect Vp [11]: 5 (Weed-killing rate is 100%.)
Herbicidal effect Am [12]: 5 (Weed-killing rate is 100%.)
Herbicidal effect Xs [13]: 5 (Weed-killing rate is 100%.)
Herbicidal effect Ec [14]: 5 (Weed-killing rate is 100%.)
Herbicidal effect At [15]: 5 (Weed-killing rate is 100%.)
Phytotoxicity Wh (wheat (Wh)): 4 (Crop-killing rate is 90-99%.)
Phytotoxicity So (soybean plant (So)): 3 (Crop-killing rate is 70-89%.)
Pre-emergence treatment Bulrush (herbicidal effect) [16]: 5 (Weed-killing rate is 100%.)
Pre-emergence treatment Barnyard grass (herbicidal effect) [17]: 5 (Weed-killing rate is 100%.)

CCCNC(=O)c1nc2c(cc1C(=O)Nc1c(CC)ccc(Cl)c1CC)COCC2 [Compound No. 462, 3-(3-Chloro-2,6-diethylphenyl)-aminocarbonyl-7,8-dihydro-5H-pyrano[4,3-b]pyridine-2-carboxylic Acid n-Propylamide]
Herbicidal effect Ga [1]: 5 (Weed-killing rate is 100%.)
Herbicidal effect Vp [2]: 5 (Weed-killing rate is 100%.)
Herbicidal effect Am [3]: 5 (Weed-killing rate is 100%.)
Herbicidal effect Xs [4]: 5 (Weed-killing rate is 100%.)
Herbicidal effect Ec [5]: 5 (Weed-killing rate is 100%.)
Herbicidal effect At [6]: 5 (Weed-killing rate is 100%.)
Phytotoxicity So (soybean plant): 5 (Crop-killing rate is 100%.)
Phytotoxicity Wh (wheat): 5 (Crop-killing rate is 100%.)
Post-emergence treatment Bulrush (herbicidal effect) [7]: 5 (Weed-killing rate is 100%.)
Post-emergence treatment Barnyard grass (herbicidal effect) [8]: 5 (Weed-killing rate is 100%.)
Post-emergence treatment Monochoria (herbicidal effect) [9]: 5 (Weed-killing rate is 100%.)
Herbicidal effect Ga [10]: 5 (Weed-killing rate is 100%.)
Herbicidal effect Vp [11]: 5 (Weed-killing rate is 100%.)
Herbicidal effect Am [12]: 5 (Weed-killing rate is 100%.)
Herbicidal effect Xs [13]: 5 (Weed-killing rate is 100%.)
Herbicidal effect Ec [14]: 5 (Weed-killing rate is 100%.)
Herbicidal effect At [15]: 5 (Weed-killing rate is 100%.)
Phytotoxicity Wh (wheat (Wh)): 5 (Crop-killing rate is 100%.)
Phytotoxicity So (soybean plant (So)): 5 (Crop-killing rate is 100%.)
Pre-emergence treatment Bulrush (herbicidal effect) [16]: 5 (Weed-killing rate is 100%.)
Pre-emergence treatment Barnyard grass (herbicidal effect) [17]: 5 (Weed-killing rate is 100%.)
